How the values were obtained:
[1] = Inhibition of yeast Fba; set-up: species or system Saccharomyces cerevisiae
Oryctolagus cuniculus = species: Oryctolagus cuniculus; assay: Ratio of Km of fructose bis-phosphate for rabbit Fba to Ki of compound for rabbit Fba
Helicobacter pylori = assay: Ratio of Km of fructose bis-phosphate for Helicobacter pyroli recombinant Fba to Ki of compound for Helicobacter pyroli recombinant Fba
[2] = Inhibition of rabbit muscle Fba; set-up: species or system Oryctolagus cuniculus
Saccharomyces cerevisiae = assay: Ratio of Km of fructose bis-phosphate for yeast Fba to Ki of compound for yeast Fba
[3] = Inhibition of Helicobacter pyroli recombinant Fba expressed in Escherichia coli JM 109; set-up: species or system Helicobacter pylori

## O=P(O)(O)OC[C@@H](O)[C@@H](O)[C@H](O)[C@@H](O)COP(=O)(O)O
[1]
  Ki: 60 nM
Oryctolagus cuniculus
  Ratio: 0.2
Helicobacter pylori
  Ratio: 0.12
[2]
  Ki: 100 µM
Saccharomyces cerevisiae
  Ratio: 3.33
[3]
  Ki: 170 nM

## O=P(O)(O)OC[C@@H](O)[C@@H](O)[C@H](O)[C@H](O)COP(=O)(O)O
[1]
  Ki: 400 nM
Oryctolagus cuniculus
  Ratio: 2.74
Helicobacter pylori
  Ratio: 0.27
[2]
  Ki: 7.3 µM
Saccharomyces cerevisiae
  Ratio: 0.5
[3]
  Ki: 73 nM
